Measured values as given in the NIST ThermoML archive (doi:10.1016/j.jct.2014.01.004).

Tests used:
[1] = for viscosity / speed of sound / mass density: 101.33 kPa, Liquid; for viscosity: Falling or rolling sphere viscometry; for speed of sound: Sing-around technique in a fixed-path interferometer; for mass density: Vibrating tube method
[2] = Molar enthalpy of transition or fusion; details: Crystal; DSC

CCC[NH3+].O=C[O-] [propylammonium formate]
[1]
Details	mass density [kg/m3]	speed of sound [m/s]	viscosity [mPa·s]
293.15 K	996.18	1553.1	96.77
298.15 K	993.47	1542.7	78.6
303.15 K	990.77	1532.4	63.58
308.15 K	988.09	1522.2	52.67
313.15 K	985.42	1512	43.97
318.15 K	982.75	1501.8	37.16
323.15 K	980.1	1491.7	31.43
328.15 K	977.45	1481.6	26.92
333.15 K	974.8	1471.7	23.32
338.15 K	972.15	1461.8	20.18
343.15 K	969.49	1452	17.57

Details	Normal melting temperature [°C]
[1], Crystal, DTA	34.00

Details	Molar enthalpy of transition or fusion [kcal/mol]
[2]	2.17

O=C[O-].[NH3+]CCCO [3-hydroxypropylammonium formate]
[1]
Details	Glass transition temperature [°C]	mass density [kg/m3]	speed of sound [m/s]	viscosity [mPa·s]
293.15 K	–	1148.29	1824.3	339.04
298.15 K	–	1145.84	1816.3	257.15
303.15 K	–	1143.39	1808.3	198.39
308.15 K	–	1140.95	1800.5	154.49
313.15 K	–	1138.53	1792.3	122.56
318.15 K	–	1136.12	1785.2	98.17
323.15 K	–	1133.73	1776.4	79.84
328.15 K	–	1131.34	1768.3	65.37
333.15 K	–	1128.97	1760.4	53.98
338.15 K	–	1126.61	1752.5	45.36
343.15 K	–	1124.25	1744.7	38.38
DTA	-24.00	–	–	–

O=C([O-])C(F)(F)F.[NH3+]CCCO [3-hydroxypropylammonium trifluoroacetate]
[1]
Details	Glass transition temperature [°C]	mass density [kg/m3]	speed of sound [m/s]	viscosity [mPa·s]
293.15 K	–	1311.44	1487.9	1430.2
298.15 K	–	1307.81	1476.5	970.33
303.15 K	–	1304.2	1465.5	677.32
308.15 K	–	1300.58	1454.9	483.03
313.15 K	–	1296.96	1444.5	352.31
318.15 K	–	1293.34	1434.3	262.07
323.15 K	–	1289.72	1424.2	198.79
328.15 K	–	1286.1	1413.9	153.05
333.15 K	–	1282.49	1403.6	119.86
338.15 K	–	1278.88	1393.2	94.92
343.15 K	–	1275.25	1382.8	76.72
DTA	-28.00	–	–	–

CC(=O)[O-].[NH3+]CCCO [3-hydroxypropylammonium acetate]
[1]
Details	Glass transition temperature [°C]	mass density [kg/m3]	speed of sound [m/s]	viscosity [mPa·s]
293.15 K	–	1114.58	1779.8	4261.7
298.15 K	–	1112.02	1770.8	2827
303.15 K	–	1109.46	1761.9	1937
308.15 K	–	1106.91	1753.3	1348.5
313.15 K	–	1104.36	1745.2	970.9
318.15 K	–	1101.8	1736.4	714.44
323.15 K	–	1099.24	1727.8	526
328.15 K	–	1096.68	1719.3	400.11
333.15 K	–	1094.13	1710.3	305.97
338.15 K	–	1091.59	1702.8	238.21
343.15 K	–	1089.03	1693.6	190.4
DTA	-26.00	–	–	–

CC(=O)[O-].CCC[NH3+] [propylammonium acetate]
[1]
Details	Glass transition temperature [°C]	mass density [kg/m3]	speed of sound [m/s]	viscosity [mPa·s]
293.15 K	–	989.97	1517.1	932.22
298.15 K	–	986.91	1508	627.41
303.15 K	–	983.85	1497.1	435.42
308.15 K	–	980.77	1487.6	309.95
313.15 K	–	977.69	1477	226.35
318.15 K	–	974.6	1467.8	167.69
323.15 K	–	971.5	1457.5	128.15
328.15 K	–	968.4	1447.9	99.03
333.15 K	–	965.3	1437.3	78.03
338.15 K	–	962.17	1427.4	61.96
343.15 K	–	959.03	1417.5	50.02
DTA	-26.00	–	–	–
